# Measurements: ChEMBL document CHEMBL1155266, “Synthesis and biological evaluation of new 4-carboxyl quinoline derivatives as cyclooxygenase-2 inhibitors” (Bioorg Med Chem, 2009)
# pIC50: −log10 of the molar value.
# Biological target: T1, Prostaglandin G/H synthase 1 (Ovis aries, UniProt P05979)
# T1 sequence (P05979 whole entry): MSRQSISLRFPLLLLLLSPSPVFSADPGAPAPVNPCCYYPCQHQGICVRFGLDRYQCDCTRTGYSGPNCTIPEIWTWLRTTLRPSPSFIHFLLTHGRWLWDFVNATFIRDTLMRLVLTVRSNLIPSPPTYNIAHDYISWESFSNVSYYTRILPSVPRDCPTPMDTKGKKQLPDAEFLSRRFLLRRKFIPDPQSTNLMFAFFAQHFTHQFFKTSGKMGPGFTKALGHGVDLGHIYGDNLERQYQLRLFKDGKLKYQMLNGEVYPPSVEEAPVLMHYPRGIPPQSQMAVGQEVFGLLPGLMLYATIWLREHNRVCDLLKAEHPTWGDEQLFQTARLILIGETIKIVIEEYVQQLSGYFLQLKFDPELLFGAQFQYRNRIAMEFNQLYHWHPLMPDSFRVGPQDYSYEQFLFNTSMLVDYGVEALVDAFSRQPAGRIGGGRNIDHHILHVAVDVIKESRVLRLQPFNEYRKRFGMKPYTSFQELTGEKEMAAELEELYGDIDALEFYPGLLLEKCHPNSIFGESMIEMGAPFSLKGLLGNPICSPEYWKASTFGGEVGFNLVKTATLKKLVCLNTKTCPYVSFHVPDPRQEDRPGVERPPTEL
# Description: Inhibition of ovine COX1 by chemiluminescent enzyme assay
row,pIC50,Structure (SMILES)
1,4.75,CS(=O)(=O)c1ccc(-c2cc(C(=O)O)c3ccc4ccccc4c3n2)cc1
2,4.66,CS(=O)(=O)c1ccc(-c2cc(C(=O)O)c3ccc4c(c3n2)CCCC4)cc1
3,4.85,Cc1cccc2c(C(=O)O)cc(-c3ccc(S(C)(=O)=O)cc3)nc12
4,4.87,CS(=O)(=O)c1ccc(-c2cc(C(=O)O)c3ccccc3n2)cc1
5,4.83,CS(=O)(=O)c1ccc(-c2cc(C(=O)O)c3cccc(-c4ccccc4)c3n2)cc1
6,4.84,Cc1ccc2c(C(=O)O)cc(-c3ccc(S(C)(=O)=O)cc3)nc2c1C
